Laboratory results: patent publication US20230123334A1, “AMINO LIPID COMPOUND, PREPARATION METHOD THEREFOR, AND APPLICATION THEREOF” (SHENZHEN SHENXIN BIOTECHNOLOGY CO., LTD., priority 2020, published 2023)

Experiments:
HEK293 cells [1] = experiment: Preliminary screening as DNA vectors, GFP transfection of HEK293 cells; assay type: cell-based; details: HEK293 cells; lipid/DOPE liposome with 75 ng plasmid DNA (psin-EGFP-IRES-Puro); number of cells expressing GFP divided by total number of nuclei (Hoechst)
Procedure, shortened: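 HEK293 cells in DMEM/10% FBS transfected with 75 ng EGFP plasmid per well complexed with amino lipid/DOPE liposomes in pH 5.6 sodium acetate. Hoechst nuclear stain added 20-24 h post-transfection, then cells cultured another 20-24 h. Confocal imaging gives GFP-positive cells as % of total nuclei.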

HEK293 cells [2] = experiment: Preliminary screening as mRNA vectors, EGFP mRNA transfection of HEK293 cells; assay type: cell-based; details: HEK293 cells, 96-well plates, EGFP mRNA 50 ng per well; percentage of GFP fluorescent cells relative to total number of cells (Hoechst)
Procedure, shortened: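 HEK293 cells in DMEM plus 10% FBS transfected in 96-well format with 50 ng EGFP mRNA per well; Lipofectamine2000 served as positive control. Read-out is the percentage of GFP-fluorescent cells among total cells, counted by Hoechst nuclear stain.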

In the case of `CCCCCCCCCNc1nc(NCCCCCCCC)nc(NCC2CCN(C)CC2)n1` [Compound N8N9D10], the “Absolute DNA transfection efficiency in HEK293 cells” value (“Absolute DNA transfection efficiency” for short) (HEK293 cells [1]) is reported as 0.5% and the “Absolute mRNA transfection efficiency in HEK293 cells” value (“Absolute mRNA transfection efficiency” below) (HEK293 cells [2]) is reported as 0.2%.
For `CCCCCCCCCCCSc1nc(NCC2CCN(C)CC2)nc(SCCCCCCCCCC)n1` [Compound S10S11D10], the “Absolute DNA transfection efficiency” value (HEK293 cells [1]) was 13.3% and the “Absolute mRNA transfection efficiency” value (HEK293 cells [2]) was 93.7%.
`CCCCCCCCCCCCCCCCCCNc1nc(NCCCCCCCCCCCCC)nc(NCCN2CCCC2)n1` [Compound N13N18D3] was tested, and the “Absolute DNA transfection efficiency” value (HEK293 cells [1]) was 0.5% and the “Absolute mRNA transfection efficiency” value (HEK293 cells [2]) was 21.5%.
For `CCCCCCCCCCCCCNc1nc(NCCCCCCCCCCCCC)nc(NCC2CCN(C)CC2)n1` [Compound N13N13D10], the “Absolute DNA transfection efficiency” value (HEK293 cells [1]) was 0.3% and the “Absolute mRNA transfection efficiency” value (HEK293 cells [2]) was 2.9%.
`CCCCCCCCCCCCCCCNc1nc(NCCCCCCCCCCC)nc(NCCN(CC)CC)n1` [Compound N11N15D7] was tested, and the “Absolute DNA transfection efficiency” value (HEK293 cells [1]) was 0.2% and the “Absolute mRNA transfection efficiency” value (HEK293 cells [2]) was 0.0%.
`CCCCCCCCCCCCCCCCCCSc1nc(NCCN2CCCCC2)nc(SCCCCCCCCCC)n1` [Compound S10S18D4] was tested, and the “Absolute DNA transfection efficiency” value (HEK293 cells [1]) was 6.7% and the “Absolute mRNA transfection efficiency” value (HEK293 cells [2]) was 6.2%.
For `CCCCCCCCCCCCCCCNc1nc(NCCCCCC)nc(NCC2CCN(C)CC2)n1` [Compound N6N15D10], the “Absolute DNA transfection efficiency” value (HEK293 cells [1]) was 0.2% and the “Absolute mRNA transfection efficiency” value (HEK293 cells [2]) was 0.7%.
For `CCCCCCCCCCCCNc1nc(NCCCCCCCCCCC)nc(NCCN2CCN(C)CC2)n1` [Compound N11N12D5], the “Absolute DNA transfection efficiency” value (HEK293 cells [1]) was 0.0% and the “Absolute mRNA transfection efficiency” value (HEK293 cells [2]) was 8.0%.
In the case of `CCCCCCCCCCCCCCCCNc1nc(NCCCCCCCCCCCCCCC)nc(NCCN2CCCCC2)n1` [Compound N15N16D4], the “Absolute DNA transfection efficiency” value (HEK293 cells [1]) is reported as 1.9% and the “Absolute mRNA transfection efficiency” value (HEK293 cells [2]) is reported as 1.6%.
With `CCCCCCCCCCCNc1nc(NCCCCCCCCCCC)nc(NCCN2CCOCC2)n1` [Compound N11N11D2] the “Absolute DNA transfection efficiency” value (HEK293 cells [1]) was 0.0% and the “Absolute mRNA transfection efficiency” value (HEK293 cells [2]) was 1.4%.
For `CCCCCCCCNc1nc(NCCCCCCCC)nc(NCCN2CCN(C)CC2)n1` [Compound N8N8D5], the “Absolute DNA transfection efficiency” value (HEK293 cells [1]) was 0.0% and the “Absolute mRNA transfection efficiency” value (HEK293 cells [2]) was 0.0%.
In the case of `CCCCCCCCCCCCCNc1nc(NCCCCCCCC)nc(NCCCN(C)C)n1` [Compound N8N13D6], the “Absolute DNA transfection efficiency” value (HEK293 cells [1]) is reported as 0.0% and the “Absolute mRNA transfection efficiency” value (HEK293 cells [2]) is reported as 0.0%.
`CCCCCCCCCCCCCNc1nc(NCCCCCCCCCCC)nc(NCCN2CCN(C)CC2)n1` [Compound N11N13D5] was tested, and the “Absolute DNA transfection efficiency” value (HEK293 cells [1]) was 0.1% and the “Absolute mRNA transfection efficiency” value (HEK293 cells [2]) was 0.2%.
With `CCCCCCCCCCCCCCCCNc1nc(NCCN(C)C)nc(N(CCCCCCCCCCCC)CCCCCCCCCCCC)n1` [N16^2N12D1] the “Absolute DNA transfection efficiency” value (HEK293 cells [1]) was 0.0% and the “Absolute mRNA transfection efficiency” value (HEK293 cells [2]) was 3.4%.
`CCCCCCCCCCCCCCCCCCNc1nc(NCCCCCC)nc(NCCN2CCN(C)CC2)n1` [Compound N6N18D5] was tested, and the “Absolute DNA transfection efficiency” value (HEK293 cells [1]) was 0.6% and the “Absolute mRNA transfection efficiency” value (HEK293 cells [2]) was 0.0%.
With `CCCCCCCCCCCCCNc1nc(NCCCCCCCCCCCCC)nc(NCCN(CC)CC)n1` [Compound N13N13D7] the “Absolute DNA transfection efficiency” value (HEK293 cells [1]) was 0.1% and the “Absolute mRNA transfection efficiency” value (HEK293 cells [2]) was 1.1%.
`CCCCCCCCCNc1nc(NCCCCCCCC)nc(NCCN2CCCC2)n1` [Compound N8N9D3] was tested, and the “Absolute DNA transfection efficiency” value (HEK293 cells [1]) was 0.5% and the “Absolute mRNA transfection efficiency” value (HEK293 cells [2]) was 0.5%.
With `CCCCCCCCCCCCCCCNc1nc(NCCCCCC)nc(NCCN2CCCCC2)n1` [Compound N6N15D4] the “Absolute DNA transfection efficiency” value (HEK293 cells [1]) was 0.1% and the “Absolute mRNA transfection efficiency” value (HEK293 cells [2]) was 0.0%.
In the case of `CCCCCCCCCCCCN(CCCCCCCCCCCC)c1nc(NCCCCCCC)nc(NCCN(CC)CC)n1` [N7^2N12D7], the “Absolute DNA transfection efficiency” value (HEK293 cells [1]) is reported as 0.6% and the “Absolute mRNA transfection efficiency” value (HEK293 cells [2]) is reported as 1.9%.
For `CCCCCCCCCCCCCCCSc1nc(NCC2CCN(C)CC2)nc(SCCCCCCCCCCCCCCC)n1` [Compound S15S15D10], the “Absolute DNA transfection efficiency” value (HEK293 cells [1]) was 1.0% and the “Absolute mRNA transfection efficiency” value (HEK293 cells [2]) was 0.3%.
`CCCCCCCCCCCCSc1nc(NCCN(C)C)nc(SCCCCCCCCCCCC)n1` [Compound S12S12D1] was tested, and the “Absolute DNA transfection efficiency” value (HEK293 cells [1]) was 0.5% and the “Absolute mRNA transfection efficiency” value (HEK293 cells [2]) was 0.6%.
For `CCCCCCCCCCCCCCCCCCSc1nc(NCCCN2CCOCC2)nc(SCCCCCCCCCCC)n1` [Compound S11S18D8], the “Absolute DNA transfection efficiency” value (HEK293 cells [1]) was 7.8% and the “Absolute mRNA transfection efficiency” value (HEK293 cells [2]) was 3.3%.
In the case of `CCCCCCCCCCCCCCCSc1nc(NCCN2CCCC2)nc(SCCCCCCCCCCCCCC)n1` [Compound S14S15D3], the “Absolute DNA transfection efficiency” value (HEK293 cells [1]) is reported as 0.3% and the “Absolute mRNA transfection efficiency” value (HEK293 cells [2]) is reported as 0.0%.
For `CCCCCCCCCCCCCNc1nc(NCCN2CCN(C)CC2)nc(N(CCCCCCCCCCCC)CCCCCCCCCCCC)n1` [N13^2N12D5], the “Absolute DNA transfection efficiency” value (HEK293 cells [1]) was 0.0% and the “Absolute mRNA transfection efficiency” value (HEK293 cells [2]) was 4.9%.
For `CCCCCCCCCCCCCCCSc1nc(NCCN2CCCC2)nc(SCCCCCCCCCCCCCCC)n1` [Compound S15S15D3], the “Absolute DNA transfection efficiency” value (HEK293 cells [1]) was 0.0% and the “Absolute mRNA transfection efficiency” value (HEK293 cells [2]) was 0.2%.
`CCCCCCCCCCCCCCCCNc1nc(NCCCCCCCCCCCCCCC)nc(NCCN(C)C)n1` [Compound N15N16D1] was tested, and the “Absolute DNA transfection efficiency” value (HEK293 cells [1]) was 1.8% and the “Absolute mRNA transfection efficiency” value (HEK293 cells [2]) was 3.6%.
With `CCCCCCCCCCCCCCCCNc1nc(NCCCCCCCCCCCC)nc(NCCCN2CCN(C)CC2)n1` [Compound N12N16D9] the “Absolute DNA transfection efficiency” value (HEK293 cells [1]) was 0.9% and the “Absolute mRNA transfection efficiency” value (HEK293 cells [2]) was 0.7%.
`CCCCCCCCCCCCCCCCCCNc1nc(NCCCCCCCCCCC)nc(NCC2CCN(C)CC2)n1` [Compound N11N18D10] was tested, and the “Absolute DNA transfection efficiency” value (HEK293 cells [1]) was 0.2% and the “Absolute mRNA transfection efficiency” value (HEK293 cells [2]) was 1.6%.
`CCCCCCCCCCCCCCCCCCNc1nc(NCCCCCCC)nc(NCCN(C)C)n1` [Compound N7N18D1] was tested, and the “Absolute DNA transfection efficiency” value (HEK293 cells [1]) was 1.0% and the “Absolute mRNA transfection efficiency” value (HEK293 cells [2]) was 2.3%.
With `CCCCCCCCCCCCCCCCNc1nc(NCCCCCCCCC)nc(NCCN(CC)CC)n1` [Compound N9N16D7] the “Absolute DNA transfection efficiency” value (HEK293 cells [1]) was 0.0% and the “Absolute mRNA transfection efficiency” value (HEK293 cells [2]) was 1.1%.
For `CCCCCCCCCCCCCCSc1nc(NCCN2CCCCC2)nc(SCCCCCCCC)n1` [Compound S8S14D4], the “Absolute DNA transfection efficiency” value (HEK293 cells [1]) was 9.3% and the “Absolute mRNA transfection efficiency” value (HEK293 cells [2]) was 3.1%.
With `CCCCCCCCCCCCCCCCCCNc1nc(NCCN(CC)CC)nc(N(CCCCCCCCCCCC)CCCCCCCCCCCC)n1` [N18^2N12D7] the “Absolute DNA transfection efficiency” value (HEK293 cells [1]) was 0.2% and the “Absolute mRNA transfection efficiency” value (HEK293 cells [2]) was 0.7%.
With `CCCCCCCCCCCCCCCCCCNc1nc(NCCCCCCCCCCC)nc(NCCN2CCOCC2)n1` [Compound N11N18D2] the “Absolute DNA transfection efficiency” value (HEK293 cells [1]) was 0.3% and the “Absolute mRNA transfection efficiency” value (HEK293 cells [2]) was 0.8%.
With `CCCCCCCCCCCCNc1nc(NCCCCCCCCCCC)nc(NCCN(CC)CC)n1` [Compound N11N12D7] the “Absolute DNA transfection efficiency” value (HEK293 cells [1]) was 0.0% and the “Absolute mRNA transfection efficiency” value (HEK293 cells [2]) was 2.4%.
In the case of `CCCCCCCCCCCCCCCSc1nc(NCCN2CCN(C)CC2)nc(SCCCCCCCCCC)n1` [Compound S10S15D5], the “Absolute DNA transfection efficiency” value (HEK293 cells [1]) is reported as 3.7% and the “Absolute mRNA transfection efficiency” value (HEK293 cells [2]) is reported as 9.4%.
In the case of `CCCCCCCCCCCCCCCSc1nc(NCCN2CCCCC2)nc(SCCCCCCCC)n1` [Compound S8S15D4], the “Absolute DNA transfection efficiency” value (HEK293 cells [1]) is reported as 11.2% and the “Absolute mRNA transfection efficiency” value (HEK293 cells [2]) is reported as 2.6%.
